The results in this text go back to patent publication US20200121677A1, “SUBSTITUTED 6,7-DIHYDROPYRAZOLO[1,5-a]PYRAZINES AS NEGATIVE ALLOSTERIC MODULATORS OF MGLUR2 RECEPTORS” (Janssen Pharmaceutica NV, priority 2014, published 2020).

One data set deals with Male Wiga Wistar rats. The data set can be described thus: Reversal of LY-404039-induced decrease of palpebral opening in apomorphine-challenged rats. Format: in vivo, rat. The conditions noted are these: for ED50: Rattus norvegicus, rats, route PO (route cell empty for Co. 88 and 84), read-out: ED50 APO LY-404039 (Reversal of LY-404039-induced decrease of palpebral opening in apomorphine challenged rats). The procedure:
1) Reversal of LY-404039-Induced Decrease of Palpebral Opening in Apomorphine-Challenged Rats.
Male Wiga Wistar rats (Crl:WI; Charles River Germany; 220±40 g) were housed under standard laboratory conditions (21±2° C.; 50-65% relative humidity; light-dark cycle set at 12 h; lights on at 6.00 h) and fasted overnight prior to the start of the experiments (tap water remained available ad libitum). During the test period, they were housed in individual cages. Palpebral opening was scored every 5 min over the first hour after injection of apomorphine (1.0 mg/kg, i.v.) in animals either pretreated or not pretreated with LY-404039 (2.5 mg/kg, s.c.) at 1 h prior to the apomorphine injection. The animals were also pretreated with test compound or solvent at a predefined interval before apomorphine challenge. The score system was: (5) exophthalmos, (4) wide open, (3) open for three-quarters, (2) half open, (1) open for one-quarter, (0) closed. The scores for palpebral opening were cumulated over the 60-min observation period.

In the next data set the target is human mGlu2 receptor (Homo sapiens, UniProt Q14416). The data set can be described thus: [35S]GTPγS binding assay, mGluR2 negative allosteric modulation (membranes from CHO cells transfected with human mGlu2 receptor, glutamate ~EC80 60 μM).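 As to all read-outs here: membranes preincubated 30 min at 30 °C with compound plus glutamate, then [35S]GTPγS (0.1 nM) incorporation measured over another 30 min at 30 °C.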 As to conditions: for IC50: GTPγS - hmGluR2 anGT pIC50, membranes with human mGlu2 receptor, glutamate ~EC80 (60 μM), pIC50 = -log IC50 (M); for Emax: read-out: GTPγS - hmGluR2 anGT Emax, relative maximal effect: maximal % inhibition relative to the control glutamate response. (In general: Binding of GTPγS marks nucleotide exchange on a G protein.)
Chain of human mGlu2 receptor (Q14416 19-872): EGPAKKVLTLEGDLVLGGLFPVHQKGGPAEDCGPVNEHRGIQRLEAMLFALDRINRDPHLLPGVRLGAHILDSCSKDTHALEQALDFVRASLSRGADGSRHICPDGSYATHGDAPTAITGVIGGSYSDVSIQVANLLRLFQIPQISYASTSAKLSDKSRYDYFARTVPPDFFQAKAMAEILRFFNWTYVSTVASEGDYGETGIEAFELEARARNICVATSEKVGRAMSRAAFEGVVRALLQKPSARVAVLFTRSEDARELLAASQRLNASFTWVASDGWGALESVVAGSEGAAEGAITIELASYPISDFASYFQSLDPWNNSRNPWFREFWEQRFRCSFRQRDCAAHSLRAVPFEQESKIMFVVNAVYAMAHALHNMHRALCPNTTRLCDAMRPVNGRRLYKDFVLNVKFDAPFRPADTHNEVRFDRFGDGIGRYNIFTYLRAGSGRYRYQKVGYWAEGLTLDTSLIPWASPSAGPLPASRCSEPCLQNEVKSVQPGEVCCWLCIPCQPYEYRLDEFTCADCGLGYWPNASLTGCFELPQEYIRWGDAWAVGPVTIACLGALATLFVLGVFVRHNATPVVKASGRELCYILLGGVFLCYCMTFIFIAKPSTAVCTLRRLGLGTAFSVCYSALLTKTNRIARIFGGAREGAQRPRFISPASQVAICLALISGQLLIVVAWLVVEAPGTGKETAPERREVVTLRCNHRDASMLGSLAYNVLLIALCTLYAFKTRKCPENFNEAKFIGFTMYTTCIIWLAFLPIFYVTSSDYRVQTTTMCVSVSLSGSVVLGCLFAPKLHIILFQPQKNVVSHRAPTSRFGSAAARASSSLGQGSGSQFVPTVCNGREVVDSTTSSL

In a further data set the test system is rats. The experiment in a line: Reversal of the effect of the mGluR2 PAM JNJ-42153605-induced inhibition of scopolamine-induced hyperlocomotion. Format: in vivo, rat. As to conditions: Rattus norvegicus; rats, route PO, criterion total distance >1500 cm; read-out: ED50 SCOP JNJ-42153605 (Reversal of the effect of JNJ 42153605 on scopolamine-induced hyperlocomotion). The procedure:
2) Reversal of the Effect of the mGluR2 PAM JNJ-42153605-Induced Inhibition of Scopolamine-Induced Hyperlocomotion
Motor activity was measured in microprocessor-based motor activity arenas (closed gray PVC cylinders with a height of 39 cm and a diameter of 31 cm). Each arena was placed on an infrared LED (8×8 LEDs) lit box (white PVC squared box; 40×40 cm^2; height 12.5 cm. An infrared-sensitive tube camera and a white light source were mounted to the ceiling above the observation chamber to track the animal. The total distance traveled (cm) was recorded and analyzed using the Noldus Ethovision XT Video Tracking System (Version 7.0.418; Noldus, Wageningen, The Netherlands). The intensity of the light within the activity cages (measured in the centre at the level of the floor) ranged between 4 and 8 LUX.
The rats were pretreated with test compound or vehicle at 60 min before the start of the activity recordings and placed into individual cages. The rats were challenged with JNJ-42153605 (3-(cyclopropylmethyl)-7-(4-phenylpiperidin-1-yl)-8-(trifluoromethyl)[1,2,4]triazolo[4,3-a]pyridine; WO2010/130424; Cid et al. J. Med. Chem. 2012, 55, 8770-8789) (20 mg/kg, i.v.) 30 min before the start of the activity recording combined with scopolamine (0.16 mg/kg, i.v.) just before the start of the activity measurements. Immediately after the injection of scopolamine, the rats were placed into the activity monitors and total distance traveled over the first 30 min was measured.
For reversal of the inhibitory effect of JNJ-42153605 on the scopolamine-induced hyperlocomotion, the following all-or-none criteria were adopted: (1) reversal: total distance >1500 cm.

Some results are limits rather than exact numbers.

Procedure for human mGlu2 receptor: The [^35S]GTPγS binding assay is a functional membrane-based assay used to study G-protein coupled receptor (GPCR) function whereby incorporation of a non-hydrolysable form of GTP, [^35S]GTPγS (guanosine 5′-triphosphate, labelled with gamma-emitting ^35S), is measured. […] Here we describe the use of the [^35S]GTPγS binding assay using membranes from cells transfected with the human mGlu2 receptor and adapted from Schaffhauser et al. (Molecular Pharmacology, 2003, 4:798-810) for the detection of the negative allosteric modulation (NAM) properties of the compounds of this invention.
CHO-cells were cultured to pre-confluence and stimulated with 5 mM butyrate for 24 h. Cells were then collected by scraping in PBS and cell suspension was centrifuged (10 min at 4000 RPM in benchtop centrifuge). Supernatant was discarded and pellet gently resuspended in 50 mM Tris-HCl, pH 7.4 by mixing with an Ultra Turrax homogenizer. The suspension was centrifuged at 12,400 RPM (Sorvall F14S-6x250Y) for 10 minutes and the supernatant discarded. The pellet was homogenized in 5 mM Tris-HCl, pH 7.4 using an Ultra Turrax homogenizer and centrifuged again (13,000 RPM, 20 min, 4° C.). The final pellet was resuspended in 50 mM Tris-HCl, pH 7.4 and stored at −80° C. in appropriate aliquots before use. Protein concentration was determined by the Bradford method (Bio-Rad, USA) with bovine serum albumin as standard.
Measurement of mGluR2 negative allosteric modulatory activity of test compounds was performed as follows. Test compounds and glutamate were diluted in assay buffer containing 10 mM HEPES acid, 10 mM HEPES salt, pH 7.4, 100 mM NaCl, 3 mM MgCl2 and 10 μM GDP. Human mGlu2 receptor-containing membranes were thawed on ice and diluted in assay buffer supplemented with 18 μg/ml saponin. Membranes were pre-incubated with compound together with a predefined (˜EC80) concentration of glutamate (60 μM) for 30 min at 30° C. After addition of [^35S]GTPγS (f.c. 0.1 nM), assay mixtures were shaken briefly and further incubated to allow [^35S]GTPγS incorporation on activation (30 minutes, 30° C.). Final assay mixtures contained 7 μg of membrane protein in 10 mM HEPES acid, 10 mM HEPES salt, pH 7.4, 100 mM NaCl, 3 mM MgCl2, 10 μM GDP and 10 μg/ml saponin. Total reaction volume was 200 μl. Reactions were terminated by rapid filtration through Unifilter-96 GF/B plates (Perkin Elmer, Massachusetts, USA) using a 96-well filtermate universal harvester. Filters were washed 6 times with ice-cold 10 mM NaH2PO4/10 mM Na2HPO4, pH 7.4. Filters were then air-dried, and 30 μl of liquid scintillation cocktail (Microscint-O) was added to each well. Membrane-bound radioactivity was counted in a Topcount.
Data were calculated as % of the control glutamate response, defined as the response that is generated upon addition of an EC80-equivalent concentration of glutamate.

With `N[C@@]1(C(=O)O)CS(=O)(=O)[C@H]2[C@H](C(=O)O)[C@H]21` [LY-404039, reference compound], in the data set on Male Wiga Wistar rats (control animals, scores cumulated over 60 min after apomorphine 1.0 mg/kg i.v., LY-404039 2.5 mg/kg s.c. 1 h before apomorphine), the “Palpebral opening score, Occurrence score > 26 (%)” value turned out to be 3.2%.
As usually defined, the ED50 is the dose that gives a 50% effect, or the effect in half of the subjects. The melting point is the temperature, or range, at which the solid turns liquid. What is called IC50 is the concentration that inhibits the measured activity by half. Lower therefore signals greater potency in that assay. The Emax is the size of the effect at its maximum, as opposed to the concentration needed. Regarding `Cc1cc(NC(=O)c2cnn3c2C(=O)N(c2ccc(C(F)(F)F)cn2)C[C@@H]3C)ccn1` [compound 88], the melting point turned out to be 244.9 °C. Besides, the ED50 in the data set on Male Wiga Wistar rats was greater than 2.5 mg/kg. Moreover, on human mGlu2 receptor, the IC50 is 8.51e-09 M and the Emax worked out at 106%.
For `Cc1cc(NC(=O)c2cnn3c2C(=O)N(c2ccc(Cl)c(OC(F)F)c2)C[C@@H]3C)ccn1` [compound 84, (7S)-5-[4-chloro-3-(difluoromethoxy)phenyl]-7-methyl-N-(2-methyl-4-pyridyl)-4-oxo-6,7-dihydropyrazolo[1,5-a]pyrazine-3-carboxamide] the same measures were 196.7 °C, greater than 2.5 mg/kg, 7.41e-09 M and 112%.
The compound `C[C@H]1CN(c2ccc(C(F)(F)F)c(F)c2)C(=O)c2c(C(=O)Nc3ccc(F)cn3)cnn21` [compound 78] returned a melting point of 183.36 °C. In the data set on rats, the ED50 was greater than 0.63 mg/kg. Besides, at human mGlu2 receptor, the IC50 was 1.35e-08 M and the Emax worked out at 106%.
Compound `Cc1cc(NC(=O)c2cnn3c2C(=O)N(c2ccc(C(F)(F)F)c(C)c2)C[C@@H]3C)ccn1` [compound 86] had a melting point of 121.8 °C. For the same compound, in the data set with rats, the ED50 stood at 1.26 mg/kg. Besides, at human mGlu2 receptor, the IC50 is 2.29e-09 M and the Emax is 105%.
`C[C@H]1CN(c2ccc(C(F)(F)F)cc2)C(=O)c2c(C(=O)Nc3ccnc(CF)c3)cnn21` [compound 151] gave a melting point of 152.64 °C. The ED50 with rats is greater than 0.63 mg/kg. Also, on human mGlu2 receptor, the IC50 is 2.69e-09 M and the Emax was 115%.
Take `Cc1cc(NC(=O)c2cnn3c2C(=O)N(c2ccc(Cl)c(C)c2)C[C@@H]3C)cc(C)n1` [compound 160]: the melting point was 178.1 °C. Further, the ED50 with rats is greater than 0.63 mg/kg. On human mGlu2 receptor, the IC50 was 3.55e-09 M and the Emax is 112%.
Consider `C[C@H]1CN(c2ccc(C(F)(F)F)cc2)C(=O)c2c(C(=O)Nc3ccncc3)cnn21` [compound 3], for which the melting point was determined as 160.2 °C. Further, the ED50 with rats worked out at 0.08 mg/kg. On human mGlu2 receptor, the half-inhibitory concentration (IC50) was 2.09e-09 M and the Emax amounted to 116%.
Consider `COc1cncc(NC(=O)c2cnn3c2C(=O)N(c2ccc(C(F)(F)F)c(Cl)c2)C[C@@H]3C)c1C` [compound 127], for which the melting point was 185.94 °C. In addition, in the data set on rats, the ED50 is greater than 0.63 mg/kg. On human mGlu2 receptor, the IC50 is 4.07e-09 M and the Emax is 108%.
For `C[C@H]1CN(c2ccc(C(F)(F)F)c(Cl)c2)C(=O)c2c(C(=O)Nc3ccc(F)cn3)cnn21` [compound 108] the same measures were 212.88 °C, greater than 0.63 mg/kg, 2.82e-09 M and 104%.
`C[C@H]1CN(c2ccc(C(F)(F)F)cc2)C(=O)c2c(C(=O)Nc3cnccc3CO)cnn21` [compound 147]: the melting point was determined as 212.57 °C. In the data set with rats, the ED50 was greater than 0.63 mg/kg. Further, at human mGlu2 receptor, the IC50 was 5.37e-08 M and the Emax is 103%.
With `C[C@H]1CN(c2ccc(C(F)(F)F)cc2)C(=O)c2c(C(=O)Nc3ccncc3F)cnn21` [compound 4], the melting point amounted to 189 °C. For the same compound, the ED50 in the data set on rats is 1.01 mg/kg. Moreover, at human mGlu2 receptor, the IC50 is 3.02e-09 M and the Emax worked out at 117%.
For `COc1cc(N2C[C@H](C)n3ncc(C(=O)Nc4cnccc4C)c3C2=O)ccc1C(F)(F)F` [compound 32] the same measures were 243.4 °C, greater than 0.63 mg/kg, 3.47e-09 M and 111%.
In turn, `Cc1cc(NC(=O)c2cnn3c2C(=O)N(c2ccc(C(F)(F)F)c(C)c2)C[C@@H]3C)cc(C)n1` [compound 111] registered a melting point of 161.92 °C. Also, the ED50 in the data set with rats came out at 0.32 mg/kg. For the same compound, at human mGlu2 receptor, the IC50 is 1.45e-09 M and the Emax came to 109%.
